Results from US9062123B2, “Labelled adrenomedullin derivatives and their use for imaging and therapy” (PLUMOSCIENCE INC., priority 2004, dated 2015).
Like-named read-outs stand apart in the source and are kept apart here. Ends that are not written are not given here.

Tests used:
[1] = Plasma kinetics of 125I-rAM(1-50) after single intravenous injection in rats; format: in vivo, rat; settings: given 5 min before the 125I-rAM(1-50) bolus
Method: All experimental procedures were performed in accordance with the regulations and ethical guidelines from Canadian Council for the Care of Laboratory Animals, and received approval by the Animal Ethics and Research Committee of the Montreal Heart Institute. Male Sprague-Dawley rats (Charles River), weighing between 400-450 g, were anaesthetized by an initial intramuscular dose of xylazine (10 mg/kg of body weight) and ketamine (50 mg/kg of body weight), followed by an intra-peritoneal injection of heparin (2000 units; Sigma). Catheters were inserted into the right carotid artery and jugular vein. Heart rate and systemic blood pressure were monitored continuously. […] Venous and arterial blood samples (3 ml) were collected and centrifuged (1875 g, 15 min, 4° C.) and the plasma saved for subsequent measurement of irAM (immunoreactive AM). A similar amount of saline was infused into the animals to prevent hypovolaemia.
The animals were then killed and the lungs, liver, kidneys (en bloc with the adrenal glands) and heart were removed and gravity drained. […] Results are expressed as a percentage of total radioactivity injected. […]
Multiple group comparisons were performed by factorial ANOVA, followed, when a significant interaction was found, by the Bonferroni/Dunn t test. […] In the canine experiments, the effect of drugs on AM extraction was analyzed by two-tailed paired Student's t tests. […]

[2] = In vivo single-pass pulmonary extraction of 125I-rAM(1-50) in dogs (indicator-dilution); set-up: species or system dog; settings: for single-pass pulmonary extraction of 125I-rAM(1-50) after administration of the substance: dogs, intravenous bolus of 100 nmol, 5 min before
Method: Dogs were anaesthetized and prepared as described in detail in reference, which is hereby incorporated by reference. A catheter was inserted into the carotid artery and positioned just above the aortic valve. This catheter was connected to a peristaltic pump for automated blood withdrawal. Another catheter was placed into the jugular vein and positioned in the right ventricular outflow tract to allow bolus injection of the study tracers. A bolus was prepared by adding 3.3 μCi of 125I-rAM(1-50) (2.9 pmol) to 3 ml of Evans-Blue-dye labelled albumin and 0.9% saline to give a final volume of 6 ml. The mixture was separated into three equal parts for the two successive experiments in each animal and to realize dilution-curve standards. A baseline single-bolus indicator-dilution experiment was performed.
The collected samples were processed and indicator-dilution curves constructed and analyzed as described in previously cited reference 13. Cardiac output and mean tracer AM extraction during the pulmonary transit time were computed from the curves. Mean tracer extraction corresponded to the difference between the areas of the outflow curve of the vascular reference (albumin) and that of the extracted tracer (AM). Recirculation of the tracers apparent in the terminal portion of the curves was removed by linear extrapolation of the semi-logarithmic down slopes.

[3] = Biodistribution / organ retention of 125I-rAM(1-50) in rats, with and without antagonists; format: in vivo, rat
Method: The animals were then killed and the lungs, liver, kidneys (en bloc with the adrenal glands) and heart were removed and gravity drained. […] Results are expressed as a percentage of total radioactivity injected.
The drugs were given by either intraarterial (n=10 in each group) or intravenous (n=10 in each group) injection 5 min before the ^125I-rAM(1-50) bolus. Plasma samples and tissues were treated as described above.

[4] = target: AM1 (CRLR+RAMP2) receptor, lungs of dogs; assay: Displacement of labelled human adrenomedullin in the lungs of dogs; format: binding, dog; settings: displacement of labelled hAM
[5] = Plasma kinetics of 99mTc-cyclic AM and 99mTc-linear AM in dogs; format: in vivo, dog; settings: two-compartment model
Method: The radiolabelled AM derivatives were injected in a volume of 1.5 mL into a right jugular vein catheter. A series of 200 μl blood samples were collected 1 min after the initial injection, then repeated every 5 min for a 30-min period. After each collection, an equal volume of saline was injected into the animal to maintain blood volume and pressure. The blood samples were then placed in a gamma counter (model 1470 Wizard, Wallac, Finland) to determine ^99mTc activity. Results were expressed as a percentage of total radioactivity injected.

[6] = Kidney uptake of 99mTc-linear AM in rats with monocrotaline kidney damage; format: in vivo, rat; settings: for kidney activity, % of total activity injected: external counting of the organs; for kidney uptake, % of total activity injected: external detection by gamma camera, 30 minutes
Method: Kidney damage was induced by a single intraperitoenal injection of monocrotaline 60 mg/kg in rats. Three weeks later the animal received were anaesthetized and mechanically ventilated. […] By both methods, the activity in the kidneys was expressed as a percentage of the total activity injected.

[7] = dog, in vivo
Method: FIG. 16 illustrates in vivo single-pass measurement of purified ^99mTc linear hAM1-52 clearance in dogs. Dogs were anesthetized and a catheter was inserted into the carotid artery and positioned just above the aortic valve. This catheter is connected to a peristaltic pump for automated blood withdrawal. Another catheter is placed into the jugular vein and positioned in the right ventricular outflow tract to allow bolus injection of the study tracers. A bolus was prepared by adding 2 mCi of purified ^99mTc linear hAM1-52 to 3 ml of Evans blue dye labeled albumin and 0.9% saline for a final volume of 6 ml. A single bolus indicator-dilution experiment was performed. The collected samples were processed and indicator-dilution curves constructed and analysed. Mean tracer ^99mTc linear hAM1-52 AM extraction during the pulmonary transit time was computed from the curves. Mean tracer extraction corresponds to the difference between the areas of the outflow curve of the vascular reference (albumin) and that of the extracted tracer (^99mTc linear hAM1-52). Recirculation of the tracers apparent in the terminal portion of the curves is removed by linear extrapolation of the semi-logarithmic down slopes.

[8] = dog, in vivo, iv
Method: Following intravenous injection of linear ^99mTc hAM1-52, dynamic acquisition of the lungs, heart, liver and kidneys was recorded for a 30-min period (one frame/sec during the first minute, then one frame/min for the remaining time). Static acquisitions were also recorded for whole individual organs, including lungs, kidneys, liver, heart, bladder, gallbladder and muzzle, at 30, 60, 120, 240 minutes after initial injection. These recordings were performed both in ventral and dorsal positions. Dynamic and static acquisitions were evaluated by using Matlab version 7.01 image analysis tools software. The ^99mTc total count, ^99mTc mean count, and region of interest (ROI) size were calculated for each organ. Data correction was applied for 1) radioactive decay, 2) table correction (dorsal images only), 3) geometric mean, and 4) organ's attenuation based on transmission factor. Results were expressed as a percentage of total radioactivity injected.

[9] = rat, in vivo
Text: The animals were then sacrificed and the lungs, liver, kidneys (en bloc with the adrenal glands) and heart were removed and gravity drained.

[10] = dog, in vivo; remark: listed apart in the source
Method: Following intravenous injection, dynamic acquisition of the lungs, heart, liver and kidneys was recorded for a 30-min period (one frame/sec during the first minute, then one frame/min for the remaining time). Static acquisitions was also recorded for whole individual organs, including lungs, kidneys, liver, heart, bladder, gallbladder and muzzle, at 30, 60, 120, 240 minutes after initial injection. These recordings were performed both in ventral and dorsal positions. Dynamic and static acquisitions were evaluated by using Matlab version 7.01 image analysis tools software. The ^99mTc total count, ^99mTc mean count, and region of interest (ROI) size were calculated for each organ. Data correction was applied for 1) radioactive decay, 2) table correction (dorsal images only), 3) geometric mean, and 4) organ's attenuation based on transmission factor. Results were expressed as a percentage of total radioactivity injected.
The images were acquired using a Siemens dual hear Ecam Gamma camera 120 min after injection of the compound.

[11] = in vivo
Text: FIGS. 18 and 19 illustrate respectively images of the lungs of a dog and a rat to which purified ^99mTc linear hAM1-52 has been administered.

[12] = for plasma level: after 10 minutes
Method: The animals were anesthetized by an initial intra-muscular dose of xylazine (10 mg/kg) and ketamine (50 mg/kg), followed by an intraperitoneal injection of heparin (2000 U, Sigma Chemical Co.). Additional doses of xylazine/ketamine were used if noxious stimuli (hind feet pinching) could elicit nociceptive motor reflexes or changes of the systemic blood pressure.
99mTc-AM-L was injected in a volume of 200 μl (0.3 pmol, 0.5 mCi) into the right jugular vein.
Differences between groups were evaluated by two-tailed independent samples t-tests. Plasma kinetics of ^99mTc-AM-L were analyzed using a two compartments pharmacokinetic model with Prism v4.0 software and the fitted curves were compared using an F test. All values are reported as means±standard deviations.

AM1 (CRLR+RAMP2) receptor, lungs of dogs, sequence (A0A8I3NWR4 25-462): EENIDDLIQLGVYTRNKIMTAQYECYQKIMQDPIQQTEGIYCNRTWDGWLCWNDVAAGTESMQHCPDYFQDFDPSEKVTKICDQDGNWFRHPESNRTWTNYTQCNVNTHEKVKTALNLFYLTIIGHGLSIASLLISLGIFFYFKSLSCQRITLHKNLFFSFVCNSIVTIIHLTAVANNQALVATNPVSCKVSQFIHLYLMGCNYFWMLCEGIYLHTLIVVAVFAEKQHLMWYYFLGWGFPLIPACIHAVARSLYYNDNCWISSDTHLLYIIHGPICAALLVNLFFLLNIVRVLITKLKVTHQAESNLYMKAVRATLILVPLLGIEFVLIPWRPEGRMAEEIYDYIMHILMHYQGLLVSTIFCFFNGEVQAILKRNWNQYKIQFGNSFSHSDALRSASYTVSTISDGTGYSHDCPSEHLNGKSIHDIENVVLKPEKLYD

## hAM(22-52): C-terminal human AM fragment that blocks the specific AM receptor
[1]
  effect on plasma kinetics of radiolabelled rAM(1-50): did not modify plasma kinetics
[2]
  single-pass pulmonary extraction of 125I-rAM(1-50) after administration of the substance: 31.4±3.3%
[3]; given before the tracer
  effect on activity of 125I-rAM(1-50) retained in kidneys: elevated the retained activity
  effect on biodistribution of 125I-rAM(1-50): did not significantly modify this distribution
[3]; prior administration
  effect on pulmonary first-pass retention of 125I-rAM(1-50): not affected
[4]
  IC50: 810 nM

## CC[C@H](C)[C@H](NC(=O)[C@H](CCC(N)=O)NC(=O)[C@H](Cc1c[nH]cn1)NC(=O)[C@H](C)NC(=O)[C@H](CC(C)C)NC(=O)[C@H](CCCCN)NC(=O)[C@H](CCC(N)=O)NC(=O)[C@@H](NC(=O)[C@@H](NC(=O)[C@@H]1CSSC[C@H](NC(=O)CNC(=O)[C@H](Cc2ccccc2)NC(=O)[C@H](CO)NC(=O)[C@H](CCCNC(=N)N)NC(=O)[C@H](CC(C)C)NC(=O)CNC(=O)[C@H](CCC(N)=O)NC(=O)[C@H](Cc2ccccc2)NC(=O)[C@H](CC(N)=O)NC(=O)[C@H](CC(N)=O)NC(=O)[C@H](CCSC)NC(=O)[C@H](CO)NC(=O)[C@H](CCC(N)=O)NC(=O)[C@H](CCCNC(=N)N)NC(=O)[C@H](Cc2ccc(O)cc2)NC(=O)CN(CCN(CCN(CC(=O)O)CC(=O)O)CC(=O)O)CC(=O)O)C(=O)N[C@@H](CCCNC(=N)N)C(=O)N[C@@H](Cc2ccccc2)C(=O)NCC(=O)N[C@@H]([C@@H](C)O)C(=O)N1)[C@@H](C)O)C(C)C)C(=O)N[C@@H](Cc1ccc(O)cc1)C(=O)N[C@@H](CCC(N)=O)C(=O)N[C@@H](Cc1ccccc1)C(=O)N[C@H](C(=O)N[C@@H](CC(=O)O)C(=O)N[C@@H](CCCCN)C(=O)N[C@@H](CC(=O)O)C(=O)N[C@@H](CCCCN)C(=O)N[C@@H](CC(=O)O)C(=O)N[C@@H](CC(N)=O)C(=O)N[C@H](C(=O)N[C@@H](C)C(=O)N1CCC[C@H]1C(=O)N[C@@H](CCCNC(=N)N)C(=O)N[C@@H](CO)C(=O)N[C@@H](CCCCN)C(=O)N[C@H](C(=O)N[C@@H](CO)C(=O)N1CCC[C@H]1C(=O)N[C@@H](CCC(N)=O)C(=O)NCC(=O)N[C@@H](Cc1ccc(O)cc1)C(N)=O)[C@@H](C)CC)C(C)C)[C@@H](C)O [^99mTc-cyclic AM, metal not drawn]
[5]
  distribution half-life: less than two min

## ^99mTc-linear AM: linear hAM(1-52) labelled directly with 99mTc
MCT versus control rats
  reduction in kidney uptake after MCT: about 50%
PAH (MCT) rats
  heart uptake, ex vivo: 0.77±0.46 % ID
PAH (MCT) rats, gamma camera, 30 minutes
  lung uptake, in vivo biodistribution: 4±1%
PAH (MCT) rats, gamma counter, 30 minutes
  lung retention, ex vivo: 3±1%
PAH versus control rats
  reduction in lung uptake in PAH: ~70%
rat, in vivo
  heart uptake, ex vivo: 0.18±0.03 % ID
  lung retention, ex vivo: 11±2 % ID
rats, 30 minutes
  liver, kidney and bladder activities, MCT group compared to control group: increased liver uptake but lower kidney and bladder activities
[6]; control rats
  kidney activity, % of total activity injected: 27%±6%
  kidney uptake, % of total activity injected: 23%±3%
[6]; monocrotaline treated rats
  kidney activity, % of total activity injected: 11%±7%
  kidney uptake, % of total activity injected: 10%±6%
[7]
  mean single pass extraction by the lung: 21%
[8]
  lung retention: 24%
[9]
  lung retention: significantly retained by lungs
  route of elimination: eliminated by the kidneys (mostly) and the liver
  thyroid uptake: minimal
  time for which lung uptake is maintained: at least 1 hour
[10]
  kidney retention: 20-30%
  kidney retention, whole body imaging: significantly retained by the kidney
[11]; dog
  pulmonary uptake, image: relatively specific and homogeneous pulmonary uptake
[11]; rat
  pulmonary uptake, image: relatively specific and homogeneous pulmonary uptake
[12]; PAH (MCT) rats
  plasma level: 2.08±0.65 % ID
[12]; control rats
  plasma level: 1.25±0.28 % ID
[12]; fitted curves, rats
  plasma levels in PAH compared to control animals: approximately two-fold higher

## unlabelled rAM(1-50): unlabelled rat adrenomedullin (1-50), American Peptide (YRQSMNQGSRSTGCRFGTCTMQKLAHQIYQFTDKDKDGMAPRNKISPQGY; ends and bridges not checked; cysteine pairing not given here)
[1]
  effect on plasma kinetics of radiolabelled rAM(1-50): did not modify plasma kinetics
[2]
  single-pass pulmonary extraction of 125I-rAM(1-50) after administration of the substance: 21.9±2.4%
[2]; same dog, second experiment
  mean extraction of 125I-rAM(1-50) after injection of the substance: 12%
[3]; given before the tracer
  effect on amount of 125I-rAM(1-50) retained by the liver, kidneys and heart: significantly increased
  effect on lung activity of 125I-rAM(1-50): important reduction in lung activity
